The source of these data is patent US12552748B2, “Pyridine (thio)amides as fungicidal compounds” (Bayer Aktiengesellschaft, priority 2020, dated 2026).

Marks after values point to notes of the source that are not given here.

Series [1] in a line: physchem. The format is physicochemical. The method, boiled down:
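Reversed-phase HPLC per EEC directive 79/831 Annex V.A8, calibrated with straight-chain alkan-2-ones (C3–C16) of known Log P via linear interpolation of retention times. Lambda-max from UV spectra 200–400 nm at chromatographic peaks.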

The test system of series [2] is Botrytis cinerea. As to the kind of experiment: In vivo preventive test on Botrytis cinerea (grey mould). To be noted: 500 ppm of active ingredient, preventive spray on gherkin or cabbage, evaluated 4 to 5 days after inoculation, 0% = control plants, 100% = no disease, read-out: efficacy. The method, then:
B-2. In Vivo Preventive Test on Botrytis cinerea (Grey Mould [table] The active ingredients were made soluble and homogenized in a mixture of Dimethyl sulfoxide/Acetone/Tween® 80 and then diluted in water to the desired concentration. The young plants of gherkin or cabbage were treated by spraying the active ingredient prepared as described above. Control plants were treated only with an aqueous solution of Acetone/Dimethyl sulfoxide/Tween® 80. After 24 hours, the plants were contaminated by spraying the leaves with an aqueous suspension of Botrytis cinerea spores.

For series [3], the system named is Sphaerotheca fuliginea. As to the kind of experiment: In vivo preventive test on Sphaerotheca fuliginea (powdery mildew on cucurbits). To be noted: Podosphaera fuliginea, 192 h; 500 ppm of active ingredient; preventive spray on gherkin; evaluated 8 days after inoculation; 0% = control plants, 100% = no disease; read-out: efficacy. The method, then: B-4. In Vivo Preventive Test on Sphaerotheca fuliginea (Powdery Mildew on Cucurbits [table] The active ingredients were made soluble and homogenized in a mixture of Dimethyl sulfoxide/Acetone/Tween® 80 and then diluted in water to the desired concentration. The young plants of gherkin were treated by spraying the active ingredient prepared as described above. Control plants were treated only with an aqueous solution of Acetone/Dimethyl sulfoxide/Tween® 80. After 24 hours, the plants were contaminated by spraying the leaves with an aqueous suspension of Sphaerotheca fuliginea spores.

Series [4] relates to Alternaria alternata. As to the kind of experiment: Alternaria alternata in vitro cell test. The format is cell-based. To be noted: 120 h, 20 ppm of active ingredient, liquid culture with spores, 5 days incubation, spectrometric measurement of mycelium growth, read-out: efficacy (inhibition of fungal growth). Here is the method: B-6. Alternaria alternata In Vitro Cell Test • Solvent: DMSO • Culture medium: 14.6 g anhydrous D-glucose (VWR), 7.1 g Mycological Peptone (Oxoid), 1.4 g granulated Yeast Extract (Merck), QSP 1 liter • Inoculum: spores suspension Fungicides were solubilized in DMSO and the solution used to prepare the required range of concentrations. […] A spore suspension of A. alternata was prepared and diluted to the desired spore density. Fungicides were evaluated for their ability to inhibit spore germination and mycelium growth in liquid culture assay. The compounds were added in the desired concentration to the culture medium with spores. After 5 days incubation, fungi-toxicity of compounds was determined by spectrometric measurement of mycelium growth. Inhibition of fungal growth was determined by comparing the absorbance values in wells containing the fungicides with the absorbance in control wells without fungicides.

In turn, `Cc1ccc(CCNC(=O)c2cc(Cl)nc(F)c2Oc2cccc(C(F)(F)F)c2)c(C)c1` [Compound I-018, 6-chloro-N-[2-(2,4-dimethylphenyl)ethyl]-2-fluoro-3-[3-(trifluoromethyl)phenoxy]pyridine-4-carboxamide] returned a chromatographic logP in series [1] of 4.95. In addition, the pest or weed control at 500 ppm in series [2] and in series [3] was 90 to 100% throughout.

For the compound `CCc1ccc(C(F)(F)CNC(=O)c2cc(Cl)ncc2Oc2cccc(C(F)(F)F)c2)c(Cl)c1` [Compound I-034, 2-chloro-N-[2-(2-chloro-4-ethyl-phenyl)-2,2-difluoro-ethyl]-5-[3-(trifluoromethyl)phenoxy]pyridine-4-carboxamide], the chromatographic logP in series [1] was 4.98. Further, the pest or weed control at 500 ppm in series [2] and in series [3] was 90 to 100% in each case. In series [4], the inhibition at 20 ppm lay within 80 to 89%. In series [1], `Cc1ccc(CCNC(=O)c2cc(NC3CC3)ncc2Oc2cccc(C(F)(F)F)c2)c(C)c1` [Compound I-050, 2-(cyclopropylamino)-N-[2-(2,4-dimethylphenyl)ethyl]-5-[3-(tri-fluoromethyl)phenoxy]pyridine-4-carboxamide] had a chromatographic logP of 3.77. Also, in series [2], the pest or weed control at 500 ppm fell in the range of 90 to 100%. Moreover, the inhibition at 20 ppm in series [4] lay in the range of 90 to 100%. As to `Cc1ccc(C(F)(F)CNC(=O)c2c(Oc3cccc(C(F)(F)F)c3)cnc(Cl)c2I)c(C)c1` [Compound I-057, 2-chloro-N-[2-(2,4-dimethylphenyl)-2,2-difluoro-ethyl]-3-iodo-5-[3-(trifluoromethyl)phenoxy]pyridine-4-carboxamide], the chromatographic logP in series [1] was 4.8. In addition, the pest or weed control at 500 ppm in series [2] and in series [3] was 90 to 100% throughout. Further, the inhibition at 20 ppm in series [4] was in the range of 90 to 100%. For `Cc1ccc(CCNC(=S)c2cc(Cl)ncc2Oc2cccc(C(F)(F)F)c2)c(C)c1` [Compound I-115, 2-chloro-N-[2-(2,4-dimethylphenyl)ethyl]-5-[3-(trifluoromethyl)phenoxy]pyridine-4-carbothioamide], the chromatographic logP in series [1] was determined as 5.42. Further, the pest or weed control at 500 ppm in series [2] and in series [3] was 90 to 100% each time. `Cc1ccc(C(F)CNC(=O)c2cc(C)ncc2Oc2cccc(C(F)F)c2)c(Cl)c1` (stereo not shown) [Compound I-224]: the LogP in series [1] was 3.63^[a]. Still for that read-out and setting: as for `Cc1ccc(CCNC(=O)c2cc(Cl)nc(C#N)c2Oc2cccc(C(F)(F)F)c2)c(C)c1` [Compound I-225], the figure is 4.58^[a]; as for `Cc1ccc(CCNC(=O)c2cc(Cl)ncc2Oc2cccc(F)c2F)c(C)c1` [Compound I-226], 4.38^[a]; as for `Cc1ccc(CCNC(=O)c2cc(Cl)ncc2Oc2cnc3c(c2)CCC3)c(C)c1` [Compound I-227], 3.35^[a]. On to `Cc1ccc(CCNC(=O)c2cc(Cl)ncc2Oc2cccc(C=O)c2)c(C)c1` [Compound I-228], for which the LogP in series [1] was 3.79^[a]. On to `Cc1ccc(CCNC(=O)c2cc(Cl)ncc2Oc2cccc(OC(F)(F)F)c2F)c(C)c1` [Compound I-229], for which the LogP in series [1] is 4.95^[a]. The same measure, in the same setting: under `Cc1ccc(C(F)(F)CNC(=O)c2c(Oc3cccc(C(F)(F)F)c3)cnc(Cl)c2N2CCCC2)c(C)c1` [Compound I-230] stands 5.49^[a]; under `Cc1ccc(C(F)(F)CNC(=O)c2c(Oc3cccc(C(F)(F)F)c3)cnc(N3CCCC3)c2I)c(C)c1` [Compound I-231], 5.57^[a].

As for `Cc1ccc(CCNC(=O)c2cc(Cl)ncc2Oc2ccc3c(c2)CCC3)c(C)c1` [Compound I-232], in series [1], the LogP was 5.49^[a]. Turning to `Cc1ccc(CCNC(=O)c2cc(Cl)ncc2Oc2cc(F)c(F)cc2F)c(C)c1` [Compound I-233], the LogP in series [1] is 4.42^[a]. Regarding `Cc1ccc(CCNC(=O)c2cc(C)ncc2Oc2cccc(Cl)c2)c(C)c1` [Compound I-234], the LogP in series [1] was 3.96^[a].

Turning to `COCCOc1cccc(Oc2cnc(Cl)cc2C(=O)NCCc2ccc(C)cc2C)c1` [Compound I-235], in series [1], the LogP is 4.27^[a]. On the same count and under the same terms, as for `Cc1cc(C(=O)NCC(F)(F)c2ccc(Br)cc2Cl)c(Oc2cccc(C(F)F)c2)cn1` [Compound I-236], the figure is 3.74^[a]. In the case of `CSc1cccc(Oc2cnc(Cl)cc2C(=O)NCCc2ccc(C)cc2C)c1F` [Compound I-237], in series [1], the LogP was 4.69^[a].

On to `Cc1ccc(CCNC(=O)c2cc(Cl)ncc2Oc2cccc(Cl)c2)c(C)c1` [Compound I-238], for which, in series [1], the LogP is 4.74^[a].

Take `Cc1ccc(C(F)(F)CNC(=O)c2cc(C3CC3)ncc2Oc2cccc(C3CC3)c2)c(C)c1` [Compound I-239]: in series [1], the LogP is 5.41^[a]. Same read-out and setting: as for `Cc1ccc(CCNC(=O)c2cc(Cl)ncc2Oc2ccc(C(F)(F)F)cc2)c(C)c1` [Compound I-240], the figure is 4.77^[a]; as for `O=C(NCC(F)(F)c1ccc(Br)cc1Cl)c1cc(Cl)ncc1Oc1cccc(Cl)c1` [Compound I-241], 4.95^[a]; as for `Cc1ccc(CCNC(=O)c2cc(C)ncc2Oc2cccc(C3CC3)c2)c(C)c1` [Compound I-242], 4.27^[a]. Still for that read-out and setting: as for `Cc1ccc(CCNC(=O)c2cc(C3CC3)ncc2Oc2cccc(C3CC3)c2F)c(C)c1` [Compound I-243], the figure is 5.32^[a]; as for `Cc1ccc(CCNC(=O)c2cc(Cl)ncc2Oc2cc(F)cc(Cl)c2)c(C)c1` [Compound I-244], 4.82^[a]; as for `Cc1ccc(CCNC(=O)c2cc(Cl)nc(Cl)c2Oc2cccc(C(F)(F)F)c2)c(Cl)c1` [Compound I-245], 5.17^[a]. For `Cc1ccc(C(F)(F)CNC(=O)c2cc(C3CC3)ncc2Oc2cccc(C3CC3)c2F)c(C)c1` [Compound I-246], the LogP in series [1] was 5.36^[a].

Take `Cc1ccc(C(F)(F)CNC(=O)c2cc(Cl)nc(Cl)c2Oc2cccc(C(F)(F)F)c2)c(C)c1` [Compound I-247]: the LogP in series [1] is 5.16^[a]. Regarding `CSc1cccc(Oc2cnc(Cl)cc2C(=O)NCCc2ccc(C)cc2C)c1` [Compound I-248], in series [1], the LogP was 4.76^[a]. Still for that read-out and setting: as for `O=C(NCC(F)(F)c1ccc(Br)cc1Cl)c1cc(Cl)ncc1Oc1cccc(C(F)F)c1` [Compound I-249], the figure is 4.54^[a]; as for `Cc1ccc(CCNC(=O)c2cc(Cl)ncc2Oc2ccc(Cl)c(Cl)c2)c(C)c1` [Compound I-250], 5.08^[a]; as for `COc1cccc(Oc2cnc(Cl)cc2C(=O)NCCc2ccc(C)cc2C)c1` [Compound I-252], 4.42^[a]. Same read-out and setting: as for `O=C(NCC(F)c1ccc(Cl)cc1Cl)c1cc(C2CC2)ncc1Oc1cccc(C2CC2)c1` (stereo not shown) [Compound I-253], the figure is 5.42^[a]; as for `Cc1ccc(CCNC(=O)c2cc(Cl)ncc2Oc2ccc(Cl)c(C(F)(F)F)c2)c(C)c1` [Compound I-254], 5.09^[a]; as for `Cc1cccc(Oc2cnc(C)cc2C(=O)NCCc2ccc(C)cc2C)c1` [Compound I-255], 3.86^[a]. For `Cc1ccc(CCNC(=O)c2cc(Cl)ncc2Oc2cccc(C3CCC3)c2)c(C)c1` [Compound I-257], in series [1], the LogP is 5.84^[a]. The same measure, in the same setting: under `Cc1ccc(CCNC(=O)c2cc(Cl)ncc2Oc2cccc(-c3ccccn3)c2)c(C)c1` [Compound I-258] stands 4.16^[a].

As for `CCOc1cccc(Oc2cnc(Cl)cc2C(=O)NCCc2ccc(C)cc2C)c1` [Compound I-259], in series [1], the LogP is 4.85^[a]. On the same count and under the same terms, as for `O=C(NCC(F)(F)c1ccc(Cl)cn1)c1cc(Cl)ncc1Oc1cccc(C(F)(F)F)c1` [Compound I-260], the figure is 3.99^[a]. On the same count and under the same terms, under `Cc1ccc(CCNC(=O)c2cc(Cl)ncc2Oc2cccc(S(C)(=O)=O)c2)c(C)c1` [Compound I-261] stands 3.38^[a].

Take `Cc1ccc(CCNC(=O)c2cc(C)ncc2Oc2cccc(C3CC3)c2F)c(C)c1` [Compound I-262]: the LogP in series [1] was 4.32^[a].

Consider `Cc1ccc(CCNC(=O)c2cc(Cl)ncc2Oc2c(F)ccc(C)c2F)c(C)c1` [Compound I-264], for which the LogP in series [1] is 4.76^[a].

As for `O=C(NCC(F)(F)c1ccc(-c2ccncc2Cl)cc1Cl)c1cc(Cl)ncc1Oc1cccc(C(F)(F)F)c1` [Compound I-266], in series [1], the LogP is 4.51^[a]. Consider `COCCc1ccc(C(F)(F)CNC(=O)c2cc(CCOC)ncc2Oc2cccc(C(F)F)c2)c(Cl)c1` [Compound I-267], for which the LogP in series [1] is 3.74^[a]. On the same count and under the same terms, under `Cc1ccc(CCNC(=O)c2cc(Cl)ncc2Oc2ccc(C)c(Cl)c2)c(C)c1` [Compound I-268] stands 5.23^[a].
